From ChEMBL document CHEMBL5096230 (J Med Chem, 2022) come the findings set out here.

Holding throughout (format): organism-based
Conditions in all cases: in vivo, 120 h, time 5 day

A short description of data set [1]: Toxicity in BALB/c mouse at 50 mg/kg, iv administered daily for 5 days.
The nature of data set [2]: Toxicity in BALB/c mouse assessed as animal death at 8 mg/kg, iv administered daily for 5 days and measured after 2 dose.
Data set [3] in a line: Toxicity in BALB/c mouse assessed as lethargy at 8 mg/kg, iv administered daily for 5 days.

SMILES strings stand for the structures.

Consider `CC(C)C[C@H](NC(=O)[C@H](Cc1ccc(N)cc1)NC(=O)CN1CCNCC1)C(=O)N[C@@H](C)C(=O)N[C@@H](Cc1ccc(-c2ccccc2C(F)(F)F)cc1)C(=O)N1CCC[C@H]1C(=O)N[C@@H](CC(=O)O)C(=O)N[C@@H](C)C(=O)N[C@H](C(=O)N1CCC[C@H]1C(=O)N[C@@H](Cc1ccccc1)C(=O)N[C@@H](CCCNC(=N)N)C(=O)N1CCC[C@H]1C(=O)NCC(=O)NCCCC[C@H](NC(=O)CNC(=O)[C@@H]1CCCN1C(=O)[C@H](CCCNC(=N)N)NC(=O)[C@H](Cc1ccccc1)NC(=O)[C@@H]1CCCN1C(=O)[C@@H](NC(=O)[C@H](C)NC(=O)[C@H](CC(=O)O)NC(=O)[C@@H]1CCCN1C(=O)[C@H](Cc1ccc(-c2ccccc2C(F)(F)F)cc1)NC(=O)[C@H](C)NC(=O)[C@H](CC(C)C)NC(=O)[C@H](Cc1ccc(N)cc1)NC(=O)CN1CCNCC1)C1CCCCC1)C(=O)NCC(=O)N[C@@H](CCCCNC(=O)CCCc1cn(CCCCCC(=O)O)nn1)C(N)=O)C1CCCCC1`, for which, in data set [1], the Activity entry is listed as “Non-Toxic”. Still for that read-out and setting: the result for `CC(=O)O[C@H]1C(=O)[C@@]2(C)[C@H]([C@H](OC(=O)c3ccccc3)[C@]3(O)C[C@H](OC(=O)[C@H](OC(=O)CCCCCn4cc(CCCC(=O)NCCCC[C@H](NC(=O)CNC(=O)[C@H](CCCCNC(=O)CNC(=O)[C@@H]5CCCN5C(=O)[C@H](CCCNC(=N)N)NC(=O)[C@H](Cc5ccccc5)NC(=O)[C@@H]5CCCN5C(=O)[C@@H](NC(=O)[C@H](C)NC(=O)[C@H](CC(=O)O)NC(=O)[C@@H]5CCCN5C(=O)[C@H](Cc5ccc(-c6ccccc6C(F)(F)F)cc5)NC(=O)[C@H](C)NC(=O)[C@H](CC(C)C)NC(=O)[C@H](Cc5ccc(N)cc5)NC(=O)CN5CCNCC5)C5CCCCC5)NC(=O)CNC(=O)[C@@H]5CCCN5C(=O)[C@H](CCCNC(=N)N)NC(=O)[C@H](Cc5ccccc5)NC(=O)[C@@H]5CCCN5C(=O)[C@@H](NC(=O)[C@H](C)NC(=O)[C@H](CC(=O)O)NC(=O)[C@@H]5CCCN5C(=O)[C@H](Cc5ccc(-c6ccccc6C(F)(F)F)cc5)NC(=O)[C@H](C)NC(=O)[C@H](CC(C)C)NC(=O)[C@H](Cc5ccc(N)cc5)NC(=O)CN5CCNCC5)C5CCCCC5)C(N)=O)nn4)[C@@H](NC(=O)c4ccccc4)c4ccccc4)C(C)=C1C3(C)C)[C@]1(OC(C)=O)CO[C@@H]1C[C@@H]2O` reads “Non-Toxic”. For `CC(=O)O[C@H]1C(=O)[C@@]2(C)[C@H]([C@H](OC(=O)c3ccccc3)[C@]3(O)C[C@H](OC(=O)[C@H](O)[C@@H](NC(=O)c4ccccc4)c4ccccc4)C(C)=C1C3(C)C)[C@]1(OC(C)=O)CO[C@@H]1C[C@@H]2O` [PACLITAXEL], the Activity result in data set [2] and in data set [3] was “Toxic” throughout.
